Patent US7786145B2, “Cyanoguanidine-based azole compounds useful as malonyl-CoA decarboxylase inhibitors” (Chugai Seiyaku Kabushiki Kaisha, priority 2003, dated 2010)

Tests used:
[1] = biological target: T1, hMCD (malonyl-CoA decarboxylase) (Homo sapiens, UniProt O95822); assay: In Vitro MCD Inhibitory Assay; format: biochemical
T1 sequence (O95822 40-493): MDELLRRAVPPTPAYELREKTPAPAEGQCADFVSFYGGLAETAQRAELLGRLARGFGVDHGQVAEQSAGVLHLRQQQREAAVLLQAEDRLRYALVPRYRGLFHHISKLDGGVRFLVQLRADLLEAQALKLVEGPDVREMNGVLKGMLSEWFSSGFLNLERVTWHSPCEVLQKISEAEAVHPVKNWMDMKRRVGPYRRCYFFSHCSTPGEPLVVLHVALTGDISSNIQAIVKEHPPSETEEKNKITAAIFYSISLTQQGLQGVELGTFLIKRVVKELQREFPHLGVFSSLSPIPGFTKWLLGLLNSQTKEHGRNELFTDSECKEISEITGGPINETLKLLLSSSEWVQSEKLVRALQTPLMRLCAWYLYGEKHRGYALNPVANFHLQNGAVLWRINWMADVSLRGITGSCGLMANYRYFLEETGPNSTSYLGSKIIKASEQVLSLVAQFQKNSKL
Procedure: In Vitro MCD Inhibitory Assay:
The conversion of […] was assayed using a modified protocol as previously described by Kim, Y. S. and Kolattukudy, P. E. in 1978 (Arch. Biochem. Biophys 190:585 (1978)). As shown in eq. 1-3, the establishment of the kinetic equilibrium between malate/NAD and oxaloacetate/NADH was catalyzed by malic dehydrogenase (eq. 2). […] The accumulation of NADH can be continuously followed by monitoring the increase of fluorescence emission at 460 nm on a fluorescence plate reader. The fluorescence plate reader was calibrated using the authentic acetyl-CoA from Sigma. For a typical 96-well plate assay, the increase in the fluorescence emission (λex=360 nm, λem=460 nm, for NADH) in each well was used to calculate the initial velocity of hMCD. Each 50 μL assay contained 10 mM phosphate buffered saline (Sigma), pH 7.4, 0.05% Tween-20, 25 mM K2HPO4—KH2PO4 (Sigma), 2 mM Malate (Sigma), 2 mM NAD (Boehringer Mannheim), 0.786 units of MD (Roche Chemicals), 0.028 unit of CS (Roche Chemicals), 5-10 nM hMCD, and varying amounts of MCA substrate. Assays were initiated by the addition of MCA, and the rates were corrected for the background rate determined in the absence of hMCD.

[2] = test system: Isolated Working Rat Hearts; assay: Glucose oxidation in isolated working rat hearts; set-up: unit not given here; details: DMSO control
Procedure: Isolated Working Rat Heart Assay Protocol
Isolated working hearts from male Sprague-Dawley rats (300-350 g) are subjected to a 60-minute aerobic perfusion period. The working hearts are perfused with 95% O2, 5% CO2 with a modified Krebs-Henseleit solution containing 5 mM glucose; 100 μU/mL insulin; 3% fatty acid-free BSA; 2.5 mM free Ca^2+, and 0.4 to 1.2 mmol/L palmitate (Kantor et al., Circulation Research 86:580-588(2000)). The test compound is added 5 minutes before the perfusion period. DMSO (0.05%) is used as control.
Measurement of Glucose Oxidation Rates
Samples were taken at 10-minute intervals for measurements of experimental parameters. Glucose oxidation rates are determined by the quantitative collection of ^14CO2 produced by hearts perfused with buffer containing [U14]-Glucose (R. Barr and G. Lopaschuk, in “Measurement of cardiovascular function”, McNeill, J. H. ed., Chapter 2, CRC press, New York (1997)). After the perfusion, the ^14CO2 from the perfusae is subsequently released by injecting 1 mL of perfusate into sealed test tube containing 1 mL of 9N H2SO4. The tube was sealed with a rubber stopper attached to a scintillation vial containing a piece of filter papers saturated with 300 μl of hyamine hydroxide. The scintillation vials with filter papers were then removed and Ecolite Scintillation Fluid added. Samples were counted by standard procedures as described above. Average rates of glucose oxidation for each phase of perfusion are expressed as μmol/min/g dry wt as described above.
Rates of fatty acid oxidation are determined using the same method as described above for glucose oxidation rate measurement using [^14C]palmitate or by the quantitative collection of ^3H2O produced by hearts perfused with buffer containing [5-^3H]palmitate (R. Barr and G. Lopaschuk, in “Measurement of cardiovascular function”, McNeill, J. H. ed., Chapter 2, CRC press, New York (1997)). ^3H2O was separated from [5-^3H]palmitate by treating 0.5 mL buffer samples with 1.88 mL of a mixture of chloroform/methanol (1:2 v:v) and then adding 0.625 mL of chloroform and 0.625 mL of a 2 M KCl/HCl solution. The sample is centrifuged for 10 min and aqueous phase was removed and treated with a mixture of 1 mL of chloroform, 1 mL of methanol and 0.9 mL KCl/HCl with a ration of 1:1:0.9. The aqueous layer was then counted for total ^3H2O determination. […] Average rates of fatty acid oxidation for each phase of perfusion are expressed as nmol/min/g dry wt after taking consideration the dilution factor. Active compounds are characterized by an increase in glucose oxidation and/or decrease in fatty acid oxidation as compared to the control experiments (DMSO). The compounds that caused statistically significant increases in glucose oxidation and/or decrease in fatty acid oxidation are considered to be active. Statistical significance was calculated using the Student's t test for paired or unpaired samples, as appropriate. The results with P<0.05 are considered to be statistically significant.

[3] = test system: CPT-I liver isoform; details: liver isoform of CPT-I; read-out: IC50 of malonyl-CoA inhibition; cited from earlier work
[4] = test system: CPT-I muscle isoform; details: muscle isoform of CPT-I; read-out: IC50 of malonyl-CoA inhibition; cited from earlier work
[5] = test system: breast carcinoma cells; details: cited from earlier work

SMILES: CCN(C(=NC#N)Nc1ccc(C(N)=O)cc1)c1ccc2nc(S)sc2c1 [CBM-000302189]
- Ki ([1]; Table 1, MCD inhibition): 2.8 nM
- Ki ([1]; Table 2, MCD inhibition): 2.8 nM
- GOX [2]: 96

SMILES: CCN(C(=NC#N)Nc1ccc(C(=O)NCC(C)C)cc1)c1ccc2nc(S)sc2c1 [CBM-000302243]
- Ki ([1]; Table 1, MCD inhibition): 24.2 nM

SMILES: CC(C)(COP(=O)(O)OP(=O)(O)OC[C@H]1O[C@@H](n2cnc3c(N)ncnc32)[C@H](O)[C@@H]1OP(=O)(O)O)[C@@H](O)C(=O)NCCC(=O)NCCSC(=O)CC(=O)O [malonyl-CoA]
- IC50 [3]: 2500 nM
- IC50 [4]: 30 nM

SMILES: CCCCN(C(=NC#N)Nc1cccc(C(F)(F)F)c1)c1ccc2nc(S)sc2c1 [CBM-000302114]
- Ki ([1]; Table 1, MCD inhibition): 210 nM

SMILES: CCCN(C(=NC#N)Nc1ccc(OC)cc1)c1ccc2nc(S)sc2c1 [CBM-000302050]
- Ki ([1]; Table 1, MCD inhibition): 15.2 nM

SMILES: CCCN(/C(=N/C#N)Nc1ccccc1)c1ccc2nc(S)sc2c1 [CBM-000302043]
- Ki ([1]; Table 1, MCD inhibition): 7.2 nM

SMILES: CCCCCCCCCCCCCCOc1ccc(C(=O)O)o1 [TOFA, 5-(tetradecyloxy)-2-furoic acid]
- malonyl-CoA level [5]: 60 % of the control

SMILES: CCCCNC(=O)c1ccc(NC(=NC#N)N(CC)c2ccc3nc(S)sc3c2)cc1 [CBM-000302244]
- Ki ([1]; Table 1, MCD inhibition): 5.6 nM
- Ki ([1]; Table 2, MCD inhibition): 5.6 nM
- GOX [2]: 152

SMILES: CCCCOc1ccc(NC(=NC#N)Nc2ccc3nc(S)sc3c2)cc1 [CBM-000302048]
- Ki ([1]; Table 1, MCD inhibition): 35.1 nM

SMILES: N#C/N=C(\Nc1ccc(OC(F)(F)F)cc1)Nc1ccc2nc(S)sc2c1 [CBM-000302047, N-cyano-N′-(2-mercapto-benzothiazol-6-yl)-N″-(4-trifluoromethoxy-phenyl)guanidine]
- Ki ([1]; Table 1, MCD inhibition): 242 nM

SMILES: CC(C)N(/C(=N/C#N)Oc1ccccc1)c1ccc2nc(S)sc2c1 [CBM-000302339, 3-Cyano-1-isopropyl-1-(2-mercapto-benzothiazol-6-yl)-2-phenyl-isourea]
- Ki ([1]; Table 1, MCD inhibition): 5.9 nM

SMILES: COc1ccc(NC(=NC#N)Nc2ccc3nc(S)sc3c2)cc1 [CBM-000302018]
- Ki ([1]; Table 1, MCD inhibition): 133 nM

SMILES: CC(C)CN(C(=NC#N)Nc1ccc(OC(F)(F)F)cc1)c1ccc2nc(S)sc2c1 [CBM-000302065]
- Ki ([1]; Table 1, MCD inhibition): 22.5 nM

SMILES: CC(C)CN(C(=NC#N)Nc1ccc(C(F)(F)F)cc1)c1ccc2nc(S)sc2c1 [CBM-000302076]
- Ki ([1]; Table 1, MCD inhibition): 82.4 nM

SMILES: CCN(C(=NC#N)NCc1ccc(C(F)(F)F)cc1)c1ccc2nc(S)sc2c1 [CBM-000302290]
- Ki ([1]; Table 1, MCD inhibition): 82.4 nM

SMILES: COC(=O)c1ccc(NC(=NC#N)N(CC(C)C)c2ccc3nc(S)sc3c2)cc1 [CBM-000302073]
- Ki ([1]; Table 1, MCD inhibition): 4.7 nM

SMILES: CCCCN(/C(=N/C#N)Nc1cccnc1)c1ccc2nc(S)sc2c1 [CBM-000302113]
- Ki ([1]; Table 1, MCD inhibition): 110 nM

SMILES: CC(C)CN(C(=NC#N)Nc1ccc(C(=O)O)cc1)c1ccc2nc(S)sc2c1 [CBM-000302088]
- Ki ([1]; Table 1, MCD inhibition): 0.3 nM

SMILES: CCCN(C(=NC#N)Nc1ccc(C(F)(F)F)cc1)c1ccc2nc(S)sc2c1 [CBM-000302075]
- Ki ([1]; Table 1, MCD inhibition): 3.5 nM
- Ki ([1]; Table 2, MCD inhibition): 3.5 nM
- GOX [2]: 230

SMILES: CN(C(=NC#N)Nc1ccc(C(F)(F)F)cc1)c1ccc2nc(S)sc2c1 [CBM-000302167]
- Ki ([1]; Table 1, MCD inhibition): 2 nM
- Ki ([1]; Table 2, MCD inhibition): 2 nM
- GOX [2]: 239

SMILES: CCN(/C(=N/C#N)Nc1ccc(C(F)(F)F)cc1)c1ccc2nc(S)sc2c1 [CBM-000302107, N-cyano-N′-ethyl-N′-(2-mercapto-benzothiazol-6-yl)-N″-(4-trifluoromethyl-phenyl)guanidine]
- Ki ([1]; Table 1, MCD inhibition): 1.7 nM
- Ki ([1]; Table 2, MCD inhibition): 1.7 nM
- GOX [2]: 290

SMILES: COc1ccc(NC(=NC#N)N(CC(C)C)c2ccc3nc(S)sc3c2)cc1 [CBM-000302064]
- Ki ([1]; Table 1, MCD inhibition): 7.1 nM

SMILES: CC(C)CN(C(=NC#N)Nc1cccc(C(F)(F)F)c1)c1ccc2nc(S)sc2c1 [CBM-000302115]
- Ki ([1]; Table 1, MCD inhibition): 320 nM

SMILES: CCCN(C(=NC#N)Nc1ccc(C(=O)O)cc1)c1ccc2nc(S)sc2c1 [CBM-000302112]
- Ki ([1]; Table 1, MCD inhibition): 1.5 nM

SMILES: CCN(C(=NC#N)NCc1ccc(OC(F)(F)F)cc1)c1ccc2nc(S)sc2c1 [CBM-000302291]
- Ki ([1]; Table 1, MCD inhibition): 49.5 nM

SMILES: CCOc1ccc(NC(=NC#N)Nc2ccc3nc(S)sc3c2)cc1 [CBM-000302049]
- Ki ([1]; Table 1, MCD inhibition): 448 nM

SMILES: CCCN(C(=NC#N)Nc1ccc(OC(F)(F)F)cc1)c1ccc2nc(S)sc2c1 [CBM-000302052]
- Ki ([1]; Table 1, MCD inhibition): 67.1 nM
- Ki ([1]; Table 2, MCD inhibition): 67.1 nM
- GOX [2]: 131

SMILES: CCCN(/C(=N/C#N)Nc1ccccc1)c1ccc2nc(S)sc2c1 [CBM-000302051]
- Ki ([1]; Table 1, MCD inhibition): 5.6 nM
